Drawing on patent US9650379B2 (CHONG KUN DANG PHARMACEUTICAL CORP., priority 2013, dated 2017), this text covers IC50 for 24 compounds.

One assay deals with T1, HDAC6 human recombinant (Homo sapiens, UniProt Q9UBN7).
T1 construct: purchased Calbiochem 382180
T1 sequence (Q9UBN7 1-1215): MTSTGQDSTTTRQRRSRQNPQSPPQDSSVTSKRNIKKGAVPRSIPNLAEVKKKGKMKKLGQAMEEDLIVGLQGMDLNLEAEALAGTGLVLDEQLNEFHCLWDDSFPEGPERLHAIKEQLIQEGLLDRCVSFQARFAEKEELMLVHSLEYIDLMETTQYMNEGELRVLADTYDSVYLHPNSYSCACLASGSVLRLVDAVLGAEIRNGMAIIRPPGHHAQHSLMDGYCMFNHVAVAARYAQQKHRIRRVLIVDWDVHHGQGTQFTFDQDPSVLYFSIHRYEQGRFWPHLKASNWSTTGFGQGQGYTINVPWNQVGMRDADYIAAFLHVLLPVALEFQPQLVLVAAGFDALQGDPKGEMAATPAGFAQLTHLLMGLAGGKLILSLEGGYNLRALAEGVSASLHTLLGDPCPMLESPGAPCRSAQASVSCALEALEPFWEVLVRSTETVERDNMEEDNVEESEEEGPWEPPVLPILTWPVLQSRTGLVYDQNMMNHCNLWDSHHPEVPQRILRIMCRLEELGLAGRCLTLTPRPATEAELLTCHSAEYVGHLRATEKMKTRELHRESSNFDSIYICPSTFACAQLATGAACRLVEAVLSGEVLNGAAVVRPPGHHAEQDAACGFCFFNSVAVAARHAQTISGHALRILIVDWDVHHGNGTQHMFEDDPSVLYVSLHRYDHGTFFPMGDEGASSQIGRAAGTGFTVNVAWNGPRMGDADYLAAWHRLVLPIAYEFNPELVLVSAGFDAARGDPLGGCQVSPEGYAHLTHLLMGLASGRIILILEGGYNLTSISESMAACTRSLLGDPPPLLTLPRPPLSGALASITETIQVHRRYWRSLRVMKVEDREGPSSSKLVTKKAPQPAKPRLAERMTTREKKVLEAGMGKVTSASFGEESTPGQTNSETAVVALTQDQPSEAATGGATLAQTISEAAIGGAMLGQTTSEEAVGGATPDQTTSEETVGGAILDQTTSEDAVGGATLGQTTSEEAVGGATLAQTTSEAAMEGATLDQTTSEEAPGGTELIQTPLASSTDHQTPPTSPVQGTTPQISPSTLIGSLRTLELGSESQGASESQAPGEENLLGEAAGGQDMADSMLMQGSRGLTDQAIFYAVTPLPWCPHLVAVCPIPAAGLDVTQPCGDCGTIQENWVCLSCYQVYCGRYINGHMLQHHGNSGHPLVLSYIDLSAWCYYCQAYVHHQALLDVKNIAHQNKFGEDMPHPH
The assay is described as follows: Inhibition of HDAC6 activity (fluorimetric assay). The assay is classed as biochemical. To be noted: test concentrations 0.1, 1, 10, 100 and 1000 nM; 37° C., 60 minutes. The essentials:
(§1)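 HDAC1 tested with the kit assay mixture at 100, 1000 and 10000 nM compound; recombinant human HDAC6 at 0.1, 1, 10, 100 and 1000 nM. Reaction ran 60 min at 37° C, then developer was added for 30 min at 37° C and fluorescence quantified.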

Another assay addresses T2, HDAC1 (Homo sapiens, UniProt Q13547).
T2 construct: purchased Enzolifesciences BML-AK511
Briefly: Inhibition of HDAC1 activity (HDAC1 fluorimetric drug discovery assay kit). The assay is classed as biochemical. Conditions: test concentrations 100, 1000 and 10000 nM; 37° C., 60 minutes. The method in brief: as §1

T2 sequence (Q13547 whole entry): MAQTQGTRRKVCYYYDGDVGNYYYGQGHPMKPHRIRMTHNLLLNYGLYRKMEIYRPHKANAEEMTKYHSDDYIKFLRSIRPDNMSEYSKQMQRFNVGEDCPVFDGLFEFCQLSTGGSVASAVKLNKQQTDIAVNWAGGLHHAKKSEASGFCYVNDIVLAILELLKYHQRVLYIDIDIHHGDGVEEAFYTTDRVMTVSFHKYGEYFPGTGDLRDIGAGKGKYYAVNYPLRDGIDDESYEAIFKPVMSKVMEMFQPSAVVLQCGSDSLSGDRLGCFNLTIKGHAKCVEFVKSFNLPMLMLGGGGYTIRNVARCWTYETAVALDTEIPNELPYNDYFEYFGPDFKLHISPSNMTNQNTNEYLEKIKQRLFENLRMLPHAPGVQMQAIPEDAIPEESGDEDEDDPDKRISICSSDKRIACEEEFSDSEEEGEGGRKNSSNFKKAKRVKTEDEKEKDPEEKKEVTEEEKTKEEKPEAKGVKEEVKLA

On to `O=C(NO)c1ccc(Cn2ccc3c(C4CCN(Cc5cccc(CN6CCOCC6)c5)CC4)ccnc32)cc1` [Compound 985, N-hydroxy-4-((4-(1-(3-(morpholinomethyl)benzyl)piperidin-4-yl)-1H-pyrrolo[2,3-b]pyridin-1-yl)methyl)benzamide], for which the IC50 was 2.3 nM on HDAC6 human recombinant and 510 nM on HDAC1.

Regarding `O=C(NO)c1ccc(Cn2ccc3cc(C4CCN(Cc5ncccn5)CC4)cnc32)cc1` [Compound 881, N-hydroxy-4-((5-(1-(pyrimidin-2-ylmethyl)piperidin-4-yl)-1H-pyrrolo[2,3-b]pyridine-1-yl)methyl)benzamide], the IC50 at HDAC6 human recombinant came out at 5.3 nM; at HDAC1, 850 nM.

Regarding `CC(C)(O)CN1CC=C(c2cnc3c(ccn3Cc3ccc(C(=O)NO)cc3)c2)CC1` [Compound 686, N-hydroxy-4-((5-(1-(2-hydroxy-2-methylpropyl)-1,2,3,6-tetrahydropyridin-4-yl)-1H-pyrrolo[2,3-b]pyridin-1-yl)methyl)benzamide], the values for the IC50 on HDAC6 human recombinant and against HDAC1 were 39 nM and 2740 nM, respectively.

Regarding `CC(C)(C)OC(=O)N1CCN(c2cnc3c(ccn3Cc3ccc(C(=O)NO)cc3)c2)CC1` [Compound 746, tert-butyl 4-(1-(4-(hydroxycarbamoyl)benzyl)-1H-pyrrolo[2,3-b]pyridine-5-yl)piperazine-1-carboxylate], the IC50 on HDAC6 human recombinant came out at 22 nM; on HDAC1, 1960 nM.

As to `O=C(NO)c1ccc(Cn2ccc3cc(N4CCC5(CC4)CN(Cc4ccccn4)C5)cnc32)cc1` [Compound 1126, N-hydroxy-4-((5-(2-(pyridin-2-ylmethyl)-2,7-diazaspiro[3.5]nonan-7-yl)-1H-pyrrolo[2,3-b]pyridin-1-yl)methyl)benzamide], the 50% inhibitory concentration (IC50) on HDAC6 human recombinant came to 1.24 nM; on HDAC1, 640 nM.

Turning to `O=C(NO)c1ccc(Cn2ccc3cc(N4CCN(Cc5ccccc5F)CC4)cnc32)cc1` [Compound 861, 4-((5-(4-(2-fluorobenzyl)piperazin-1-yl)-1H-pyrrolo[2,3-b]pyridin-1-yl)methyl)-N-hydroxybenzamide], the half-inhibitory concentration (IC50) on HDAC6 human recombinant is 11.2 nM; at HDAC1, 1880 nM.

Take `CN1CCN(Cc2ccc(CN3CCC(c4cnc5c(ccn5Cc5ccc(C(=O)NO)cc5)c4)CC3)cc2)CC1` [Compound 877, N-hydroxy-4-((5-(1-(4-((4-methylpiperazin-1-yl)methyl)benzyl)piperidin-4-yl)-1H-pyrrolo[2,3-b]pyridin-1-yl)methyl)benzamide]: the half-maximal inhibitory concentration (IC50) on HDAC6 human recombinant came to 8.7 nM; at HDAC1, 770 nM.

Consider `O=C(NO)c1ccc(Cn2ccc3c(N4CCC5(CC4)CN(Cc4cccnc4)C5)ccnc32)cc1` [Compound 1024, N-hydroxy-4-((4-(2-(pyridin-3-ylmethyl)-2,7-diazaspiro[3.5]nonan-7-yl)-1H-pyrrolo[2,3-b]pyridin-1-yl)methyl)benzamide], for which the IC50 was found to be 1.8 nM on HDAC6 human recombinant and 190 nM against HDAC1.

For the compound `COc1cccc(CN2[C@H](C)CN(c3cnc4c(ccn4Cc4ccc(C(=O)NO)cc4)c3)C[C@@H]2C)c1` [Compound 1003], the half-inhibitory concentration (IC50) on HDAC6 human recombinant turned out to be 7.7 nM; against HDAC1, 2680 nM.

As for `O=C(NO)c1ccc(Cn2ccc3cc(C4CCN(Cc5ccncc5)CC4)cnc32)cc1` [Compound 841, N-hydroxy-4-((5-(1-(pyridin-4-ylmethyl)piperidin-4-yl)-1H-pyrrolo[2,3-b]pyridin-1-yl)methyl)benzamide], the half-maximal inhibitory concentration (IC50) at HDAC6 human recombinant was determined as 6.9 nM; at HDAC1, 540 nM.

Consider `O=C(NO)c1ccc(Cn2ccc3c(-c4ccc(F)cc4F)ccnc32)cc1` [Compound 658, 4-((4-(2,4-difluorophenyl)-1H-pyrrolo[2,3-b]pyridin-1-yl)methyl)-N-hydroxybenzamide], for which the IC50 at HDAC6 human recombinant stood at 21 nM; on HDAC1 it was 1950 nM.

Consider `CC(C)(F)C(=O)N1CCC(c2cnc3c(ccn3Cc3ccc(C(=O)NO)cc3)c2)CC1` [Compound 854, 4-((5-(1-(2-fluoro-2-methylpropanoyl)piperidin-4-yl)-1H-pyrrolo[2,3-b]pyridin-1-yl)methyl)-N-hydroxybenzamide], for which the concentration for half-maximal inhibition (IC50) on HDAC6 human recombinant was 5 nM; on HDAC1, 350 nM.

`O=C(NO)c1ccc(Cn2ccc3cc(C4CCN(Cc5ccccc5)CC4)cnc32)cc1` [Compound 804, 4-((5-(1-benzylpiperidin-4-yl)-1H-pyrrolo[2,3-b]pyridin-1-yl)methyl)-N-hydroxybenzamide]: the IC50 was determined as 58 nM on HDAC6 human recombinant and 1980 nM at HDAC1.

For `O=C(NO)c1ccc(Cn2ccc3cc(-c4ccc(O)cc4)cnc32)cc1` [Compound 691, N-hydroxy-4-((5-(4-hydroxyphenyl)-1H-pyrrolo[2,3-b]pyridin-1-yl)methyl)benzamide], the half-maximal inhibitory concentration (IC50) came to 5 nM at HDAC6 human recombinant and 2310 nM against HDAC1.

`COc1ccc(CN2CCC3(CCN(c4ccnc5c4ccn5Cc4ccc(C(=O)NO)cc4)CC3)C2)cc1` [Compound 1021, N-hydroxy-4-((4-(2-(4-methoxybenzyl)-2,8-diazaspiro[4.5]decan-8-yl)-1H-pyrrolo[2,3-b]pyridin-1-yl)methyl)benzamide]: the IC50 on HDAC6 human recombinant was determined as 14 nM; against HDAC1 it was 240 nM.

`O=C(NO)c1ccc(Cn2ccc3c(C4CCN(Cc5cccnc5)CC4)ccnc32)cc1` [Compound 1014, N-hydroxy-4-((4-(1-(pyridin-3-ylmethyl)piperidin-4-yl)-1H-pyrrolo[2,3-b]pyridin-1-yl)methyl)benzamide]: the concentration for half-maximal inhibition (IC50) is 8.5 nM at HDAC6 human recombinant and 670 nM on HDAC1.

On to `CC(C)CN1CCN(c2cnc3c(ccn3Cc3ccc(C(=O)NO)cc3)c2)CC1` [Compound 853, N-hydroxy-4-((5-(4-isobutylpiperazin-1-yl)-1H-pyrrolo[2,3-b]pyridin-1-yl)methyl)benzamide], for which the IC50 came out at 24 nM at HDAC6 human recombinant and 3510 nM against HDAC1.

With `CC(C)(F)C(=O)N1CCN(c2cnc3c(ccn3Cc3ccc(C(=O)NO)cc3)c2)CC1` [Compound 855, 4-((5-(4-(2-fluoro-2-methylpropanoyl)piperazin-1-yl)-1H-pyrrolo[2,3-b]pyridin-1-yl)methyl)-N-hydroxybenzamide], the IC50 on HDAC6 human recombinant turned out to be 3.5 nM; on HDAC1, 250 nM.

`CC(C)(O)CN1C2CCC1CC(c1ccnc3c1ccn3Cc1ccc(C(=O)NO)cc1)C2` (stereo not drawn) [Compound 930, N-hydroxy-4-((4-(8-(2-hydroxy-2-methylpropyl)-8-aza-bicyclo[3.2.1]octan-3-yl)-1H-pyrrolo[2,3-b]pyridin-1-yl)methyl)benzamide]: the IC50 amounted to 1.7 nM on HDAC6 human recombinant and 250 nM on HDAC1.

For `C[C@@H]1CN(c2cnc3c(ccn3Cc3ccc(C(=O)NO)cc3)c2)C[C@H](C)N1Cc1ncccn1` [Compound 1005, 4-((5-((3S,5R)-3,5-dimethyl-4-(pyrimidin-2-ylmethyl)-1-yl)-1H-pyrrolo[2,3-b]pyridin-1-yl)methyl)-N-hydroxybenzamide], the figures for the half-inhibitory concentration (IC50) at HDAC6 human recombinant and against HDAC1 were 5.5 nM and 750 nM, respectively.

Regarding `O=C(NO)c1ccc(Cn2ccc3c(C4CCN(Cc5ccc(CN6CCOCC6)cc5)CC4)ccnc32)cc1` [Compound 987, N-hydroxy-4-((4-(1-(4-(morpholinomethyl)benzyl)piperidin-4-yl)-1H-pyrrolo[2,3-b]pyridin-1-yl)methyl)benzamide], the figures for the 50% inhibitory concentration (IC50) at HDAC6 human recombinant and on HDAC1 were 5.7 nM and 320 nM, respectively.

As to `O=C(NO)c1ccc(Cn2ccc3cc(N4CCN(Cc5cccc(F)c5)CC4)cnc32)cc1` [Compound 851, 4-((5-(4-(3-fluorobenzyl)piperazin-1-yl)-1H-pyrrolo[2,3-b]pyridin-1-yl)methyl)-N-hydroxybenzamide], the IC50 was determined as 12.7 nM on HDAC6 human recombinant and 1930 nM against HDAC1.

As for `CC(C)(C)OC(=O)NC1CCN(c2cnc3c(ccn3Cc3ccc(C(=O)NO)cc3)c2)CC1` [Compound 809, tert-butyl (1-(1-(4-(hydroxycarbamoyl)benzyl)-1H-pyrrolo[2,3-b]pyridin-5-yl)piperidin-4-yl)carbamate], the IC50 on HDAC6 human recombinant was 30 nM; on HDAC1 it was 3720 nM.

Consider `Nc1cccc(-c2cnc3c(ccn3Cc3ccc(C(=O)NO)cc3)c2)c1` [Compound 690, 4-((5-(3-aminophenyl)-1H-pyrrolo[2,3-b]pyridin-1-yl)methyl)-N-hydroxybenzamide], for which the half-inhibitory concentration (IC50) on HDAC6 human recombinant turned out to be 12 nM; at HDAC1, 2310 nM.

As usually defined, the IC50 is the concentration that inhibits the measured activity by half.
